Results from PubChem BioAssay (NCI).
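Each compound was tested at five concentrations against cells in 96-well plates for 48 hours. At the GI50, growth is halved. Definition used: TGI = concentration required for complete inhibition of growth.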

Tests used:
Experiment in all cases: growth of human tumour cells (NCI), 48 h
[1] = test system: UACC-257 melanoma
[2] = test system: 786-0 renal
[3] = test system: HT29 colon
[4] = test system: NCI-H460 lung
[5] = test system: M14 melanoma
[6] = test system: SW-620 colon
[7] = test system: SK-MEL-28 melanoma
[8] = test system: KM12 colon
[9] = test system: CAKI-1 renal
[10] = test system: MALME-3M melanoma
[11] = test system: A549 NSCLC
[12] = test system: HS 578T breast
[13] = test system: TK-10 renal
[14] = test system: OVCAR-4 ovarian
[15] = test system: SR leukemia
[16] = test system: MDA-MB-435
[17] = test system: UACC-62 melanoma
[18] = test system: ACHN renal
[19] = test system: MDA-N

Structure (SMILES) | TGI [1] [µM] | TGI [2] [µM] | TGI [3] [µM] | TGI [4] [µM] | TGI [5] [µM] | TGI [6] [µM] | TGI [7] [µM] | TGI [8] [µM] | TGI [9] [µM] | TGI [10] [µM] | TGI [11] [µM] | TGI [12] [µM] | TGI [13] [µM] | TGI [14] [µM] | TGI [15] [µM] | TGI [16] [µM] | TGI [17] [µM] | TGI [18] [µM] | TGI [19] [µM] | GI50 [17] [µM]
O=C(/C=C/c1ccc(O)c(O)c1)NCCc1ccc(-c2ccccc2)cc1 | > 100 | > 100 | > 100 | > 100 | > 100 | > 100 | > 100 | > 100 | > 100 | 53.9 | > 100 | > 100 | 63.3 | > 100 | – | – | – | – | – | –
OC(c1ccccc1)C(F)(F)c1nc2ccccc2o1 (centres undefined) | > 100 | > 100 | > 100 | > 100 | > 100 | > 100 | > 100 | > 100 | > 100 | – | – | > 100 | > 100 | > 100 | > 100 | > 100 | > 100 | > 100 | – | –
O=[N+]([O-])c1cccc2nc3ccccc3c(NCCCN3CCCCC3)c12 | 0.0446 | 0.0492 | 0.326 | < 0.0134 | 0.0232 | 5.89 | – | 0.112 | 0.496 | 0.038 | 0.115 | 0.0966 | 0.0712 | 0.031 | – | 0.0227 | 0.0298 | 0.0472 | 0.0217 | –
COc1cc(C23OCC(Cc4cc5c(cc42)OCO5)C3CO)cc(OC)c1OC (centres undefined) | > 100 | > 100 | > 100 | > 100 | > 100 | > 100 | > 100 | > 100 | > 100 | > 100 | > 100 | > 100 | > 100 | > 100 | > 100 | – | > 100 | > 100 | – | 4.27
CCC(=O)NCCc1c2c3c(ccnc3c3ncsc13)-c1ccccc1N2 | > 94.9 | > 55.4 | > 100 | 29.1 | > 100 | > 100 | > 100 | > 100 | > 100 | > 100 | > 53.1 | 18.7 | > 100 | > 100 | – | > 64.5 | > 67.1 | > 38.3 | > 100 | –
N#Cc1c(N)c(C#N)c2c(c1-c1ccc(Cl)cc1)COc1ccccc1-2 | > 100 | 15.1 | 40.3 | > 100 | > 100 | > 100 | 37.4 | > 100 | – | 58.1 | 33.2 | – | 36.1 | 30 | 26.3 | 99.4 | > 100 | 38.1 | 66.4 | –
COc1ccc(C[C@H](N)C(=O)N2C[C@@H](CO)C[C@@H](n3cnc4c(N(C)C)ncnc43)C2)cc1 | > 100 | > 100 | > 100 | > 100 | > 100 | > 100 | > 100 | > 100 | > 100 | > 100 | > 100 | – | > 100 | – | > 100 | – | > 100 | – | – | –
CC(O[Si](c1ccccc1)(c1ccccc1)C(C)(C)C)[C@H](NC(=O)OC(C)(C)C)C(=O)O (some centres undefined) | > 100 | > 100 | > 100 | > 100 | > 100 | > 100 | > 100 | > 100 | > 100 | > 100 | > 100 | > 100 | > 100 | > 100 | 90.2 | – | – | > 100 | 97.1 | –
COc1ccc(/C=C2/CCS(=O)(=O)c3ccc(C)cc3C2=O)cc1OC | 25.4 | 27.7 | 27.6 | 25.8 | > 100 | > 100 | 56.5 | 23 | 47.5 | – | > 100 | 73.2 | 37.5 | 66.9 | 58.1 | 71.6 | 22.7 | 27.4 | 49.5 | –
Cc1cc(C)n(C(=O)CSc2nnc(SCC(=O)n3nc(C)cc3C)s2)n1 | > 100 | > 100 | – | > 100 | > 100 | > 100 | > 100 | > 100 | > 100 | – | > 100 | 89.3 | > 100 | > 100 | > 100 | > 100 | > 100 | > 100 | > 100 | –
O=C(N/N=C(/COc1cccc(Cl)c1)N=Cc1cccnc1)c1ccncc1 | > 100 | > 100 | > 100 | > 100 | > 100 | > 100 | > 100 | > 100 | > 100 | > 100 | > 100 | > 100 | > 100 | > 100 | – | > 100 | > 100 | > 100 | > 100 | –
CC(=O)O[C@@H]1O[Si](C(C)(C)C)(C(C)(C)C)[C@H](C)[C@H]1C | > 100 | > 100 | 55.6 | – | > 100 | > 100 | > 100 | > 100 | > 100 | 90.1 | > 100 | – | > 100 | > 100 | > 100 | > 100 | > 100 | > 100 | > 100 | –
CC1=NN(C(=O)c2ccc(Cl)cc2)C(=O)/C1=C/c1ccco1 | > 100 | > 100 | > 100 | > 100 | > 100 | > 100 | > 100 | > 100 | > 100 | > 100 | > 100 | – | > 100 | > 100 | – | – | > 100 | > 100 | – | –
Cc1c2c(ccc3ccccc32)c[n+]2ccccc12 | 26.5 | > 100 | > 100 | – | 40.9 | > 100 | 31.1 | 11.8 | > 100 | 6.98 | > 100 | – | > 100 | 28.9 | 23.3 | – | – | > 100 | – | –
COc1ccc2nc3n(c2c1)C(c1c(Cl)cccc1Cl)SC3 (centres undefined) | > 100 | > 100 | – | > 100 | > 100 | > 100 | > 100 | > 100 | > 100 | – | > 100 | – | > 100 | 65.9 | > 100 | > 100 | > 100 | > 100 | > 100 | –
O=S(=O)(OI(O)CC(F)(F)F)C(F)(F)F | > 100 | > 100 | > 100 | > 100 | > 100 | > 100 | > 100 | > 100 | > 100 | – | > 100 | – | > 100 | > 100 | > 100 | > 100 | > 100 | > 100 | – | –
N#CCCN(CCC#N)c1ccc(C(N=Nc2ccc(Cl)cc2)=Nc2ccc(F)cc2)cc1 | > 100 | > 100 | > 100 | > 100 | > 100 | > 100 | > 100 | > 100 | > 100 | – | > 100 | > 100 | > 100 | > 100 | > 100 | > 100 | > 100 | > 100 | > 100 | –
O=C1/C(=C/c2cccs2)NC(=S)N1CN1CCCC(CO)C1 (centres undefined) | > 100 | > 100 | > 100 | – | > 100 | > 100 | > 100 | > 100 | – | > 100 | > 100 | > 100 | > 100 | > 100 | > 100 | > 100 | > 100 | > 100 | > 100 | –
COc1ccc(-c2nc(-c3cnccn3)n(COCCO)n2)cc1 | > 100 | > 100 | > 100 | > 100 | > 100 | > 100 | > 100 | > 100 | – | – | > 100 | – | > 100 | > 100 | > 100 | > 100 | > 100 | – | > 100 | –
COC(=O)c1cc(C)n(CN(Cc2ccccc2)Cn2nc(C(=O)OC)cc2C)n1 | > 100 | > 100 | > 100 | > 100 | > 100 | > 78 | > 100 | > 100 | > 100 | > 100 | > 100 | > 100 | > 100 | > 100 | – | > 100 | > 100 | > 65.6 | > 100 | –
CCOC(=O)N1[C@@H]2CCC[C@@H]2C(=O)[C@@H]2CCC[C@@H]21 | > 100 | > 100 | > 100 | > 100 | > 100 | > 100 | > 100 | > 100 | > 100 | – | > 100 | > 100 | – | > 100 | > 100 | > 100 | > 100 | > 100 | > 100 | –
CCOC(=O)c1[nH]c2nc(SC)nc(Nc3ccccc3Cl)c2c1N | > 100 | 46 | 47.1 | 41.1 | > 100 | > 100 | > 100 | > 100 | > 100 | 67 | 44.8 | 61.8 | 56.3 | 60.3 | – | > 100 | 84.7 | 46.1 | > 100 | –
COC(=O)C1C(C(=O)OC)C1(Br)CBr (centres undefined) | > 100 | 36.3 | 63.3 | > 100 | > 100 | > 100 | > 100 | > 100 | 31.6 | – | > 100 | > 100 | > 100 | > 100 | 46.8 | > 100 | > 100 | 61.8 | > 100 | –
CC1=CC(C)(C)Nc2ccc(CSc3ccccc3)cc21 | 59.3 | 72.1 | 38.2 | 67.4 | 65.2 | > 100 | > 100 | 63.5 | > 100 | 47.5 | 51.4 | > 100 | > 100 | 46.1 | – | 63.4 | > 100 | > 100 | 69.9 | –
O=[N+]([O-])c1sc2ccc(Cl)cc2c1Nc1ccc(Cl)cc1 | – | > 100 | > 100 | > 100 | > 100 | > 100 | > 100 | > 100 | – | > 100 | > 100 | > 100 | > 100 | > 100 | – | > 100 | > 100 | > 100 | – | –
C[C@]12CC/C(=N\OCCN3CCCCC3)C=C1CCC1C2CC[C@@]2(C)C1CC[C@]2(C)O (some centres undefined) | 18.9 | 17.3 | 10.2 | 17.5 | 37.7 | 62.8 | 30.4 | 26.6 | 23.7 | 23.2 | 35 | 32.1 | 34 | 76 | – | 6.71 | 24.8 | 39.6 | 11.7 | –
CCCCCCCCCc1c(O)c(O)c(CCCCCCCCC)c(CCCCCCCCC)c1CCCCCCCCC | > 100 | > 100 | > 100 | > 100 | > 100 | > 100 | > 100 | > 100 | > 100 | > 100 | > 100 | > 100 | > 100 | > 100 | – | > 100 | > 100 | > 100 | > 100 | –
O=C1C2ON3c4ccccc4C(=O)C3(c3ccccc3)C2C(=O)N1c1ccccc1 (centres undefined) | > 100 | > 100 | > 100 | – | > 100 | > 100 | > 100 | – | – | > 100 | > 100 | – | – | > 100 | > 100 | – | > 100 | > 100 | – | –
